From US4325949A, “Combinations of agents which give enhanced anti-inflammatory activity” (American Cyanamid Company, priority 1980, dated 1982)
Where “and” joins values, the source holds several entries; their conditions need not be identical. Identical values can stand only once.

Experiments:
[1] = body weight gain in the adjuvant induced arthritis test in the rat; type: in vivo, rat (Royal Hart, Wistar strain)
Procedure: (§1) Groups of three Royal Hart, Wistar strain rats, weighing 200±10 g. each were injected intradermally in the right hind paw with Freund's adjuvant (dried human tubercle bacilli in a mineral oil vehicle) at a dose of 2 mg./kg. of body weight. Test compositions were administered orally in a 1.5% starch vehicle at various doses once daily on days 0 through 13 post challenge. Control rats were treated in a similar manner, but given only starch vehicle. On the 14th, 21st, 28th and 35th days post challenge the diameter of the injected paw (primary lesion) was measured by micrometer caliper. The volume of inflamed paws were estimated from these measurements and the results are expressed as percent inhibition of swelling as compared to controls. At the same time, the other inflamed sites, such as ears, paws and tail (secondary lesions) were observed and each rat was graded as to degree of inflammation and swelling present. The grading is based on a scale of 0 to 24, where 0 represents a complete absence of induced arthritic modules and 24 represents the maximum degree of inflammation. The mean grade for each treated group is calculated and the effects of each test compound are expressed as percent inhibition of the control grade. The following Tables I-V record the results of tests conducted with the compositions of this invention and conventional anti-inflammatory agents both separately and in combination. All tests were replicated several times. Each treatment group represents a total of 18 rats. Each challenged control group comprised 36 rats and each unchallenged control group was 9 rats.

[2] = test system: adjuvant induced arthritis; test: adjuvant induced arthritis test in the rat (primary and secondary lesions); type: in vivo, rat (Royal Hart, Wistar strain)
Procedure: as §1

arthritic paw swelling = conditions: S. Wong et al. 1973; G. R. Bobalick et al. 1974; cited from earlier work
[3] = oral 25 mg/kg once daily, day 14
[4] = oral 25 mg/kg once daily, day 21
[5] = oral 25 mg/kg once daily, day 28
[6] = oral 25 mg/kg once daily, day 35
[7] = oral 50 mg/kg once daily, day 14
[8] = oral 50 mg/kg once daily, day 21
[9] = oral 50 mg/kg once daily, day 28
[10] = oral 50 mg/kg once daily, day 35
[11] = oral 100 mg/kg once daily, day 21, 100 mg/kg
[12] = oral 100 mg/kg once daily, day 14
[13] = oral 100 mg/kg once daily, day 21
[14] = oral 12.5 mg/kg once daily, day 14, 12.5 mg/kg
[15] = oral 12.5 mg/kg once daily, day 21, 12.5 mg/kg
[16] = oral 12.5 mg/kg once daily, day 28
[17] = oral 12.5 mg/kg once daily, day 35, 12.5 mg/kg
[18] = oral 25 mg/kg once daily, day 14, 25 mg/kg
[19] = oral 25 mg/kg once daily, day 21, 25 mg/kg
[20] = oral 25 mg/kg once daily, day 28, 25 mg/kg
[21] = oral 25 mg/kg once daily, day 35, 25 mg/kg
[22] = oral 0.25 mg/kg once daily, day 14, 0.25 mg/kg
[23] = oral 0.5 mg/kg once daily, day 14, 0.5 mg/kg
[24] = oral 0.5 mg/kg once daily, day 21, 0.5 mg/kg
[25] = oral 1.0 mg/kg once daily, day 14, 1 mg/kg
[26] = oral 1.0 mg/kg once daily, day 21, 1 mg/kg
[27] = oral 5 mg/kg once daily, day 14
[28] = oral 5 mg/kg once daily, day 21
[29] = oral 5 mg/kg once daily, day 28
[30] = oral 5 mg/kg once daily, day 35
[31] = oral 10 mg/kg once daily, day 14
[32] = oral 10 mg/kg once daily, day 21
[33] = oral 10 mg/kg once daily, day 28
[34] = oral 10 mg/kg once daily, day 35

N#CCC(=O)c1ccc(F)cc1 [(p-Fluorobenzoyl)-acetonitrile]
Body Weight Gain in Grams [1, 3]: 71 Grams | Body Weight Gain in Grams [1, 4]: 65 Grams | Body Weight Gain in Grams [1, 5]: 80 Grams | Body Weight Gain in Grams [1, 6]: 111 Grams | Body Weight Gain in Grams [1, 7]: 75 Grams | Body Weight Gain in Grams [1, 8]: 77 Grams | Body Weight Gain in Grams [1, 9]: 93 Grams | Body Weight Gain in Grams [1, 10]: 125 Grams | Primary Lesions (% Inhibition) [2, 3]: 30% | Secondary Lesions (% Inhibition) [2, 3]: 23% | Primary Lesions (% Inhibition) [2, 4]: 17% | Secondary Lesions (% Inhibition) [2, 4]: 0% | Primary Lesions (% Inhibition) [2, 5]: 0% | Secondary Lesions (% Inhibition) [2, 5]: 0% | Primary Lesions (% Inhibition) [2, 6]: 6% | Secondary Lesions (% Inhibition) [2, 6]: 7% | Primary Lesions (% Inhibition) [2, 7]: 53% | Secondary Lesions (% Inhibition) [2, 7]: 34% | Primary Lesions (% Inhibition) [2, 8]: 32% | Secondary Lesions (% Inhibition) [2, 8]: 10% | Primary Lesions (% Inhibition) [2, 9]: 27% | Secondary Lesions (% Inhibition) [2, 9]: 28% | Primary Lesions (% Inhibition) [2, 10]: 22% | Secondary Lesions (% Inhibition) [2, 10]: 19%

CC(=O)Oc1ccccc1C(=O)O [Aspirin, 2-(acetyloxy)benzoic acid, reference compound]
Body Weight Gain in Grams ([1]; oral 100 mg/kg once daily, day 14, 100 mg/kg): 45 Grams and 47 Grams | Body Weight Gain in Grams [1, 11]: 42 Grams and 46 Grams | Body Weight Gain in Grams ([1]; oral 100 mg/kg once daily, day 28, 100 mg/kg): 44 Grams and 57 Grams | Primary Lesions (% Inhibition) ([2]; oral 50 mg/kg once daily, day 14, 50 mg/kg): 21% and 16% | Secondary Lesions (% Inhibition) ([2]; oral 50 mg/kg once daily, day 21, 50 mg/kg): 12% and 10% | Secondary Lesions (% Inhibition) ([2]; oral 50 mg/kg once daily, day 28, 50 mg/kg): 31% and 20% | Primary Lesions (% Inhibition) [2, 10]: 0% | Primary Lesions (% Inhibition) [2, 11]: 8% and 2% | Primary Lesions (% Inhibition) ([2]; oral 100 mg/kg once daily, day 35, 100 mg/kg): 5% and 1%

N#CCC(=N)c1ccccc1 [Benzimidoylacetonitrile]
Body Weight Gain in Grams [1, 3]: 72 Grams | Body Weight Gain in Grams [1, 4]: 66 Grams | Body Weight Gain in Grams [1, 7]: 77 Grams | Body Weight Gain in Grams [1, 8]: 80 Grams | Body Weight Gain in Grams [1, 12]: 70 Grams | Body Weight Gain in Grams [1, 13]: 88 Grams | Primary Lesions (% Inhibition) [2, 3]: 56% | Secondary Lesions (% Inhibition) [2, 3]: 63% | Primary Lesions (% Inhibition) [2, 4]: 33% | Secondary Lesions (% Inhibition) [2, 4]: 24% | Primary Lesions (% Inhibition) [2, 7]: 68% | Secondary Lesions (% Inhibition) [2, 7]: 70% | Primary Lesions (% Inhibition) [2, 8]: 58% | Secondary Lesions (% Inhibition) [2, 8]: 43% | Primary Lesions (% Inhibition) [2, 12]: 68% | Secondary Lesions (% Inhibition) [2, 12]: 75% | Primary Lesions (% Inhibition) [2, 13]: 55% | Secondary Lesions (% Inhibition) [2, 13]: 34%

N#CCC(=O)c1ccccc1 [Benzoylacetonitrile]
Body Weight Gain in Grams [1, 14]: 57 Grams and 49 Grams | Body Weight Gain in Grams [1, 15]: 53 Grams and 38 Grams | Body Weight Gain in Grams [1, 16]: 55 Grams | Body Weight Gain in Grams [1, 17]: 81 Grams and 68 Grams | Body Weight Gain in Grams [1, 18]: 52 Grams and 47 Grams and 57 Grams | Body Weight Gain in Grams [1, 19]: 52 Grams and 47 Grams and 57 Grams | Body Weight Gain in Grams [1, 20]: 75 Grams and 51 Grams | Body Weight Gain in Grams [1, 21]: 86 Grams and 69 Grams | Body Weight Gain in Grams [1, 7]: 58 Grams | Body Weight Gain in Grams [1, 8]: 62 Grams | Body Weight Gain in Grams [1, 12]: 56 Grams | Body Weight Gain in Grams [1, 13]: 79 Grams | Primary Lesions (% Inhibition) [2, 14]: 44% and 49% | Secondary Lesions (% Inhibition) [2, 14]: 45% and 59% | Primary Lesions (% Inhibition) [2, 15]: 16% and 32% | Secondary Lesions (% Inhibition) [2, 16]: 25% | Secondary Lesions (% Inhibition) [2, 17]: 22% and 26% | Primary Lesions (% Inhibition) [2, 18]: 60% and 62% and 36% | Secondary Lesions (% Inhibition) [2, 18]: 70% and 62% and 50% | Primary Lesions (% Inhibition) [2, 19]: 36% and 38% and 24% | Secondary Lesions (% Inhibition) [2, 20]: 20% and 19% | Secondary Lesions (% Inhibition) [2, 21]: 38% and 20% | Primary Lesions (% Inhibition) [2, 7]: 60% | Secondary Lesions (% Inhibition) [2, 7]: 66% | Primary Lesions (% Inhibition) [2, 8]: 45% | Secondary Lesions (% Inhibition) [2, 8]: 43% | Primary Lesions (% Inhibition) [2, 12]: 55% | Secondary Lesions (% Inhibition) [2, 12]: 76% | Primary Lesions (% Inhibition) [2, 13]: 54% | Secondary Lesions (% Inhibition) [2, 13]: 56%

COc1ccc2c(c1)c(CC(=O)O)c(C)n2C(=O)c1ccc(Cl)cc1 [Indomethacin, 1-(4-chlorobenzoyl)-5-methoxy-2-methyl-1H-indole-3-acetic acid, reference compound]
Body Weight Gain in Grams [1, 22]: 59 Grams and 43 Grams | Body Weight Gain in Grams ([1]; oral 0.25 mg/kg once daily, day 21, 0.25 mg/kg): 45 Grams and 46 Grams | Body Weight Gain in Grams [1, 23]: 71 Grams and 61 Grams | Body Weight Gain in Grams [1, 24]: 57 Grams and 51 Grams | Body Weight Gain in Grams [1, 25]: 92 Grams and 76 Grams | Body Weight Gain in Grams [1, 26]: 84 Grams and 70 Grams | Primary Lesions (% Inhibition) [2, 22]: 29% and 44% | Secondary Lesions (% Inhibition) [2, 22]: 22% and 25% | Primary Lesions (% Inhibition) [2, 23]: 50% and 41% | Primary Lesions (% Inhibition) ([2]; oral 0.5 mg/kg once daily, day 21): 8% | Secondary Lesions (% Inhibition) [2, 24]: 10% and 3% | Primary Lesions (% Inhibition) [2, 25]: 63% and 57% | Secondary Lesions (% Inhibition) [2, 25]: 54% and 48% | Primary Lesions (% Inhibition) [2, 26]: 27% and 24% | Secondary Lesions (% Inhibition) [2, 26]: 30% and 27% | arthritic paw swelling (arthritic paw swelling): inhibit arthritic paw swelling | joint and bone deterioration (arthritic paw swelling): prevent joint and bone deterioration

C[C@]12C=CC(=O)C=C1CC[C@@H]1[C@@H]2[C@@H](O)C[C@@]2(C)[C@H]1CC[C@]2(O)C(=O)CO [Prednisolone, reference compound]
Body Weight Gain in Grams [1, 27]: 22 Grams | Body Weight Gain in Grams [1, 28]: 26 Grams | Body Weight Gain in Grams [1, 29]: 44 Grams | Body Weight Gain in Grams [1, 30]: 71 Grams | Body Weight Gain in Grams [1, 31]: 23 Grams | Body Weight Gain in Grams [1, 32]: 47 Grams | Body Weight Gain in Grams [1, 33]: 75 Grams | Body Weight Gain in Grams [1, 34]: 95 Grams | Primary Lesions (% Inhibition) [2, 27]: 63% | Secondary Lesions (% Inhibition) [2, 27]: 45% | Primary Lesions (% Inhibition) [2, 28]: 24% | Secondary Lesions (% Inhibition) [2, 28]: 16% | Primary Lesions (% Inhibition) [2, 29]: 17% | Secondary Lesions (% Inhibition) [2, 29]: 5% | Primary Lesions (% Inhibition) [2, 30]: 11% | Secondary Lesions (% Inhibition) [2, 30]: 20% | Primary Lesions (% Inhibition) [2, 31]: 57% | Secondary Lesions (% Inhibition) [2, 31]: 55% | Primary Lesions (% Inhibition) [2, 32]: 24% | Secondary Lesions (% Inhibition) [2, 32]: 21% | Primary Lesions (% Inhibition) [2, 33]: 14% | Secondary Lesions (% Inhibition) [2, 33]: 3% | Primary Lesions (% Inhibition) [2, 34]: 13% | Secondary Lesions (% Inhibition) [2, 34]: 17%

N#CC=C(N)c1cccs1 [β-Amino-2-thiopheneacrylonitrile]
Body Weight Gain in Grams [1, 7]: 63 Grams | Body Weight Gain in Grams [1, 8]: 66 Grams | Body Weight Gain in Grams [1, 9]: 76 Grams | Body Weight Gain in Grams [1, 10]: 108 Grams | Primary Lesions (% Inhibition) [2, 7]: 16% | Secondary Lesions (% Inhibition) [2, 7]: 13% | Primary Lesions (% Inhibition) [2, 8]: 14% | Secondary Lesions (% Inhibition) [2, 8]: 0% | Primary Lesions (% Inhibition) [2, 9]: 6% | Secondary Lesions (% Inhibition) [2, 9]: 4% | Primary Lesions (% Inhibition) [2, 10]: 1% | Secondary Lesions (% Inhibition) [2, 10]: 11%
